{"source": "patent US20170067894A1", "about": "(priority 2014, published 2017)", "key": {"LuxR of Vibrio fischeri": {"molecular_target": "LuxR of Vibrio fischeri (Aliivibrio fischeri, UniProt P12746, DEL21-21/INS42T/N22A/N23Y)", "sequence (P12746 with tags, fused parts or gaps DEL21-21/INS42T/N22A/N23Y)": "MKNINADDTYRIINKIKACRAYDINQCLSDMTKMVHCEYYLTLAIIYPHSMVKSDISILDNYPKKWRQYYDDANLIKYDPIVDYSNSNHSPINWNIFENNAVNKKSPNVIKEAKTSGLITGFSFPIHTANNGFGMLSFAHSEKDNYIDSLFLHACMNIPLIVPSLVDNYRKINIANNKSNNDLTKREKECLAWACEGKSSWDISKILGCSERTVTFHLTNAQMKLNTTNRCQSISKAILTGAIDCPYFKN", "assay_type": "cell-based", "settings": "for induction of luminescence (LuxR activation) compared to 2-AA: 50 μM, 20 h of incubation, FIG. 10"}, "[1]": {"system": "LuxR-regulated luminescence of Vibrio fischeri MJ-1", "assay_type": "cell-based"}}, "note": "Read-outs that look alike come from different tables or passages of the source."}
{"compound": "Nc1ccccc1C(=O)O", "note": "[anthranilic acid]", "values": [{"measurement": "induction of luminescence (LuxR activation) compared to 2-AA", "setting": "LuxR of Vibrio fischeri", "result": "completely abolished the induction of luminescence"}]}
{"compound": "CCCC(=O)CC(=O)N[C@H]1CCOC1=O", "note": "[3-oxo-C6-HSL]", "values": [{"measurement": "luminescence of V. fischeri MJ-1", "setting": "[1]; 10 nM, FIG. 6", "result": "significant increase"}, {"measurement": "luminescence of V. fischeri MJ-1", "setting": "[1]; two repeats of the experiment (data not shown)", "result": "no luminescence was measured"}, {"measurement": "affinity towards LuxR relative to 2-AA", "setting": "LuxR of Vibrio fischeri; as apparent from FIGS. 4 through 9", "result": "approximately three orders of magnitude higher"}]}
{"compound": "Nc1ccccc1C=O", "note": "[2-aminobenzaldehyde]", "values": [{"measurement": "induction of luminescence (LuxR activation) compared to 2-AA", "setting": "LuxR of Vibrio fischeri", "result": "completely abolished the induction of luminescence"}]}
{"compound": "O=C(C[N+](=O)[O-])c1ccccc1", "note": "[2-nitroacetophenone]", "values": [{"measurement": "induction of luminescence (LuxR activation) compared to 2-AA", "setting": "LuxR of Vibrio fischeri", "result": "could also activate LuxR, but to a lesser extent than 2-AA"}, {"measurement": "dose dependency of LuxR activation", "setting": "LuxR of Vibrio fischeri; 1-50 μM", "result": "no dose dependency"}, {"measurement": "synergistic effects in the presence of AHL", "setting": "LuxR of Vibrio fischeri; 1-50 μM", "result": "no dose dependency or synergistic effects in the presence of AHL were observed"}]}
{"compound": "CC(=O)c1ccccc1", "note": "[acetophenone]", "values": [{"measurement": "induction of luminescence (LuxR activation) compared to 2-AA", "setting": "LuxR of Vibrio fischeri", "result": "completely abolished the induction of luminescence"}]}
{"compound": "CC(=O)c1cccc(N)c1", "note": "[3-aminoacetophenone]", "values": [{"measurement": "induction of luminescence (LuxR activation) compared to 2-AA", "setting": "LuxR of Vibrio fischeri", "result": "completely abolished the induction of luminescence"}]}
{"compound": "COC(=O)c1ccccc1N", "note": "[methyl anthranilate]", "values": [{"measurement": "induction of luminescence (LuxR activation) compared to 2-AA", "setting": "LuxR of Vibrio fischeri", "result": "completely abolished the induction of luminescence"}]}
{"compound": "CC(=O)c1ccc(N)cc1", "note": "[4-aminoacetophenone]", "values": [{"measurement": "induction of luminescence (LuxR activation) compared to 2-AA", "setting": "LuxR of Vibrio fischeri", "result": "completely abolished the induction of luminescence"}]}
